Experimental data: ChEMBL document CHEMBL3856281, “Novel approach of fragment-based lead discovery applied to renin inhibitors” (Bioorg Med Chem, 2016)
Converted amounts (≈) assume the structure as drawn.

Tests used:
[1] = target: CYP3A4 (Homo sapiens, UniProt P08684); assay: Inhibition of CYP3A4 in human liver microsomes using testosterone as substrate assessed as 6beta-hydroxytestosterone formation at 10 uM after 60 mins by LC/MS/MS analysis relative to control; assay type: ADME; details: probe testosterone
Chain of CYP3A4 (P08684 whole entry): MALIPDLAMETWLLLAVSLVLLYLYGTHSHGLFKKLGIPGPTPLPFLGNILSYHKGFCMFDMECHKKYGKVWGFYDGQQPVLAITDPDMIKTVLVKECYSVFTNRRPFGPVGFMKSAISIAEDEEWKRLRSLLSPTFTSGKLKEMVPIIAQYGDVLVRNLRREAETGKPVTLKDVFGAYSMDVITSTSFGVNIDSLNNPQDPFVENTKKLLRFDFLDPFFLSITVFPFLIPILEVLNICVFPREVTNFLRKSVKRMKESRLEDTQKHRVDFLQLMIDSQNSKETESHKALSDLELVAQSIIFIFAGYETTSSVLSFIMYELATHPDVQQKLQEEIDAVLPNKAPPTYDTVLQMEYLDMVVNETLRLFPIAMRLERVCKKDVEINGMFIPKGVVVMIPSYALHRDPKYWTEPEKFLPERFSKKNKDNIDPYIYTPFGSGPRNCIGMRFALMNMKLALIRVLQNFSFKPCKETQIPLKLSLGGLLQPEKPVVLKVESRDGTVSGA

[2] = Cytotoxicity against human HepG2 cells assessed as ATP contents at 30 uM after 1 day by ATPLiteTM-M assay relative to control; assay type: toxicity, cell-based; details: read-out: Activity
[3] = Aqueous solubility of the compound in pH 6.8 Japanese pharmacopoeia second fluid by HPLC analysis; assay type: ADME
[4] = Intrinsic clearance in human liver microsomes assessed per mg of protein at 1 umol/l after 15 to 30 mins in presence of NADPH-generating system by LC/MS/MS analysis; assay type: ADME; details: read-out: CLH
[5] = target: hERG (KCNH2) (Homo sapiens, UniProt Q12809); assay: Inhibition of human ERG expressed in CHO cells assessed as suppression of peak tail currents incubated for 5 mins by patch clamp method; assay type: cell-based; details: CHO cells that express human ERG
Chain of hERG (KCNH2) (Q12809 whole entry): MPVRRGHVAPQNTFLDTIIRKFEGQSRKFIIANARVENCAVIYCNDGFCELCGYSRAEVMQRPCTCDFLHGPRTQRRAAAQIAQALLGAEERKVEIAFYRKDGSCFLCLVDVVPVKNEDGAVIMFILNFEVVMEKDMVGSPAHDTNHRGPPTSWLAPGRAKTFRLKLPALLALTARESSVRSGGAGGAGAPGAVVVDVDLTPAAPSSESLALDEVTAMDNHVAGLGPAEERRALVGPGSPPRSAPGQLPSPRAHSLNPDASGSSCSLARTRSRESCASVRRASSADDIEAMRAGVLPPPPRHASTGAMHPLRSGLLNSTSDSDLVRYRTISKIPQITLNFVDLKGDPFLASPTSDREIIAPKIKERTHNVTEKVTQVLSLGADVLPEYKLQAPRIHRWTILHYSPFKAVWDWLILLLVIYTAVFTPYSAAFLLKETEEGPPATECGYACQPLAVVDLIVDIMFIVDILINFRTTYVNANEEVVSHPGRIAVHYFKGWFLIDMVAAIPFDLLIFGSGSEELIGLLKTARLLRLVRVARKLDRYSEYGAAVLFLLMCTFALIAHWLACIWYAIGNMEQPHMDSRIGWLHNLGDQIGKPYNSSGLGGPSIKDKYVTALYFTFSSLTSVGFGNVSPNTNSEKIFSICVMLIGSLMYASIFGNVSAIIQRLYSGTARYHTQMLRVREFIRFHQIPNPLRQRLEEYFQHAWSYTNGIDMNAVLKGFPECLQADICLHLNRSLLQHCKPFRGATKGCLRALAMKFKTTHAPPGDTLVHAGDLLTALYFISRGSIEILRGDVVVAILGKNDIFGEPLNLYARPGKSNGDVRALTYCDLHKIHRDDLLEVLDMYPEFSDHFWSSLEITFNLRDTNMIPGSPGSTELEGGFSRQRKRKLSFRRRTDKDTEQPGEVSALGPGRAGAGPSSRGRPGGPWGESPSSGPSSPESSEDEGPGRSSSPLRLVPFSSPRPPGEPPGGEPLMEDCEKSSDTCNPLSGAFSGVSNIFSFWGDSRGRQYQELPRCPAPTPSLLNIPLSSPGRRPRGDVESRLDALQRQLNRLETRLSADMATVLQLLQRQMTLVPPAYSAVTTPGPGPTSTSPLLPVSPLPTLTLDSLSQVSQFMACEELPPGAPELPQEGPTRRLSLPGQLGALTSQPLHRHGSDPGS

[6] = target: T1, Renin (Homo sapiens) (UniProt P00797); assay: (§1) Inhibition of human recombinant renin expressed in FreeStyle 293 expression system at 100 uM using FITC-epsilonAcp-Asp-Arg-Val-Tyr-Ile-His-Pro-Phe-His-Leu-Val-Ile-His-Asn-Arg-NH2 as substrate preincubated for 15 mins followed by substrate addition measured after 30 mins by microchip type capillary electrophoresis method relative to control
T1 sequence (whole entry): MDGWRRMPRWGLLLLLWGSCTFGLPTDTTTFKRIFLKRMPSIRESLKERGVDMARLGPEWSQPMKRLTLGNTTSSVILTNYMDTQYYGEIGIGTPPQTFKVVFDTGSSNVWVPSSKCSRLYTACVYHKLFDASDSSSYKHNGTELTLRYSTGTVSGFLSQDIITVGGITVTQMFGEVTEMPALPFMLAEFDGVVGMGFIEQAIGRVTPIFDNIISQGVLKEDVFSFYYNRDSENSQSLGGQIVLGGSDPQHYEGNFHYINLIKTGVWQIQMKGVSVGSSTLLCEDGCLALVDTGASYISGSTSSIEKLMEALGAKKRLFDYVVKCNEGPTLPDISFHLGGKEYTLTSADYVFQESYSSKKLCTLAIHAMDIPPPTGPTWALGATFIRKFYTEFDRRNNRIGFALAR

[7] = target: T2, Renin (Homo sapiens, UniProt P00797); assay: as §1, with “system” for “system at 100 uM”, “method” for “method relative to control”
T2 sequence (P00797 whole entry): T1 sequence (whole entry)

Work on `c1coc(CNc2ncnc3sc4c(c23)CCCC4)c1` yielded an inhibition at 1 h, 10 µM [1] of 70.2%, a viability at 24 h, 30 µM [2] of 31.4% and a solubility [3] of 5.2 µg/mL (≈ 18.2 µM). It also gave a microsomal CLint at 1 µM [4] of 187 µL/min/mg and an inhibition at 5 min [5] of 62.8%.

Molecule `Cc1ccc(C(=O)N2CCCCCC2)c(NCc2ccco2)n1` has an inhibition at 1 h, 10 µM [1] of 35.6%, an inhibition [6] of 70% and a viability at 24 h, 30 µM [2] of 91.6%. The solubility [3] was 50 µg/mL (≈ 160 µM), the microsomal CLint at 1 µM [4] was 85 µL/min/mg and the inhibition at 5 min [5] was 7.5%.

For `Nc1ncnc2sc3c(c12)CCCC3`, the IC50 [7] was over 300 µM.

`CCN(CC)C(=O)c1ccc(C)nc1NCc1ccco1` gave an inhibition [6] of 31%.

`CCC1CCCCN1C(=O)c1ccc(C)nc1NCc1ccco1` (stereo not drawn) showed an inhibition [6] of 86% and an IC50 [7] of 11 µM.

`Cc1ccc(C(=O)NC(C)(C)c2ccccc2)c(NCc2ccco2)n1` gave an inhibition [6] of under 30%.

Molecule `Clc1cncc(NCc2ccco2)n1` has an inhibition [6] of 65%.

`NCc1ccco1` showed an IC50 [7] of over 300 µM.
